PubChem BioAssay (NCI)
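1) Cells in 96-well plates. 2) Compound, 48 h, 5 concentrations. 3) Linear interpolation between surrounding doses. 4) Unreached endpoint = highest concentration. GI50 is the concentration that inhibits growth by half. TGI: concentration producing complete growth inhibition.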

How the values were obtained:
Test in all cases: NCI anticancer screen, dose series, 48 h
A498 renal = tested on: A498 renal
HOP-92 NSCLC = tested on: HOP-92 NSCLC
SK-MEL-28 melanoma = tested on: SK-MEL-28 melanoma
SK-MEL-5 melanoma = tested on: SK-MEL-5 melanoma
HS 578T breast = tested on: HS 578T breast
HCT-116 colon = tested on: HCT-116 colon
SK-OV-3 ovarian = tested on: SK-OV-3 ovarian
HCC-2998 colon = tested on: HCC-2998 colon
RXF 393 renal = tested on: RXF 393 renal
NCI-H23 lung = tested on: NCI-H23 lung
PC-3 prostate = tested on: PC-3 prostate
UACC-62 melanoma = tested on: UACC-62 melanoma
NCI-H226 lung = tested on: NCI-H226 lung
KM12 colon = tested on: KM12 colon
MOLT-4 leukemia = tested on: MOLT-4 leukemia
UO-31 renal = tested on: UO-31 renal
NCI-H522 lung = tested on: NCI-H522 lung
HCT-15 colon = tested on: HCT-15 colon
NCI-H460 lung = tested on: NCI-H460 lung
OVCAR-4 ovarian = tested on: OVCAR-4 ovarian
A549 NSCLC = tested on: A549 NSCLC
M14 melanoma = tested on: M14 melanoma
SW-620 colon = tested on: SW-620 colon
LOX IMVI melanoma = tested on: LOX IMVI melanoma
NCI/ADR-RES ovarian = tested on: NCI/ADR-RES ovarian
TK-10 renal = tested on: TK-10 renal
SNB-75 CNS = tested on: SNB-75 CNS

SMILES: Cc1ccc2cc3c(cc(C)c4ccccc43)c3c2c1CC3
- TGI (A498 renal): > 100 µM
- GI50 (HOP-92 NSCLC): 17.4 µM
- TGI (HOP-92 NSCLC): 82.3 µM
- GI50 (SK-MEL-28 melanoma): > 100 µM
- TGI (SK-MEL-28 melanoma): > 100 µM
- GI50 (SK-MEL-5 melanoma): > 100 µM
- TGI (SK-MEL-5 melanoma): > 100 µM
- GI50 (HS 578T breast): 89.1 µM
- TGI (HS 578T breast): > 100 µM
- GI50 (HCT-116 colon): > 100 µM
- TGI (HCT-116 colon): > 100 µM
- GI50 (SK-OV-3 ovarian): > 100 µM
- TGI (SK-OV-3 ovarian): > 100 µM
- GI50 (HCC-2998 colon): > 100 µM
- TGI (HCC-2998 colon): > 100 µM
- GI50 (RXF 393 renal): 57.2 µM
- TGI (RXF 393 renal): > 100 µM
- GI50 (NCI-H23 lung): > 100 µM
- TGI (NCI-H23 lung): > 100 µM
- GI50 (PC-3 prostate): > 100 µM
- TGI (PC-3 prostate): > 100 µM
- GI50 (UACC-62 melanoma): > 100 µM
- TGI (UACC-62 melanoma): > 100 µM
- GI50 (NCI-H226 lung): > 100 µM
- TGI (NCI-H226 lung): > 100 µM
- GI50 (KM12 colon): > 100 µM
- TGI (KM12 colon): > 100 µM
- GI50 (MOLT-4 leukemia): > 100 µM
- TGI (MOLT-4 leukemia): > 100 µM
- GI50 (UO-31 renal): > 100 µM
- TGI (UO-31 renal): > 100 µM
- GI50 (NCI-H522 lung): > 100 µM
- TGI (NCI-H522 lung): > 100 µM
- GI50 (HCT-15 colon): > 100 µM
- TGI (HCT-15 colon): > 100 µM
- GI50 (NCI-H460 lung): > 100 µM
- TGI (NCI-H460 lung): > 100 µM
- GI50 (OVCAR-4 ovarian): > 100 µM
- TGI (OVCAR-4 ovarian): > 100 µM
- GI50 (A549 NSCLC): > 100 µM
- TGI (A549 NSCLC): > 100 µM
- GI50 (M14 melanoma): > 100 µM
- TGI (M14 melanoma): > 100 µM
- GI50 (SW-620 colon): > 100 µM
- TGI (SW-620 colon): > 100 µM
- GI50 (LOX IMVI melanoma): > 100 µM
- TGI (LOX IMVI melanoma): > 100 µM
- GI50 (NCI/ADR-RES ovarian): > 100 µM
- TGI (NCI/ADR-RES ovarian): > 100 µM
- GI50 (TK-10 renal): 65.6 µM
- TGI (TK-10 renal): > 100 µM
- GI50 (SNB-75 CNS): 26.7 µM
- TGI (SNB-75 CNS): > 100 µM
